30 molecules from PubChem BioAssay (NCI) can be followed below.

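Method: 48-hour compound exposure of cells in 96-well plates, five concentrations, linear interpolation of endpoints. The concentration for 50% growth inhibition is given as GI50. Definition used: TGI = concentration required for complete inhibition of growth.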 Some results are limits rather than exact numbers.

The subject of the first experiment is CAKI-1 renal. Put plainly: NCI-60 cell line screen, 48 h.
Molecule `Cc1c2ccncc2c(C)c2c1[nH]c1ccc(O)c(OCC(F)(F)F)c12` gave a TGI of 19.6 µM.

`CC(C)(C)OC(=O)NC1CCCC1=O` (stereo not drawn) yielded a TGI above 100 µM.

As to `Cc1c(C(=O)/C=C/c2ccccc2[N+](=O)[O-])[n+](=O)c2ccccc2n1[O-]`, the TGI is 15.7 µM.

Molecule `O=C1[C@H]2ON(c3ccccc3)C(c3ccco3)[C@H]2C(=O)N1c1ccc(Cc2ccc(N3C(=O)[C@@H]4ON(c5ccccc5)C(c5ccco5)[C@@H]4C3=O)cc2)cc1` (stereo partly drawn) returned a TGI above 100 µM.

`Cc1cccc(C)c1N1C(=O)C(=O)C(c2nc3ccccc3s2)/C(=N/NC(=O)NN)C1=O` (stereo not drawn) registered a TGI above 100 µM.

`CCCCCCC(C)CCCCCCCCCCC(=O)O` (stereo not drawn): the TGI is above 100 µM.

For the molecule `CC(C)(C)c1ccc(OC2CCO2)cc1` (stereo not drawn), the TGI is above 100 µM.

With `CC1(O)CCn2c(=O)c3cc4ccccc4cc3c(=O)n2C1O` (stereo not drawn), the TGI is above 100 µM.

On to `CC(C)[O-].CC(C)[O-].O=c1cccccc1[O-].O=c1cccccc1[O-].[Ti+4]`, for which the TGI was above 100 µM.

For `COc1cc(CNc2nc3ccc(C(F)(F)F)cc3nc2-c2ccccc2)cc(OC)c1OC`, the TGI was above 100 µM.

On to `COc1ccccc1NC(=O)/C(=C/c1ccccc1)C(C)=O`, for which the TGI was above 100 µM.

For `CC(=O)n1c(=O)c2cc3c(=O)n(-c4cccc(C#N)c4)c(=O)c3cc2c1=O`, the TGI was above 100 µM.

For the molecule `O=C(CC1(O)C(=O)Nc2c(Cl)ccc(Cl)c21)c1ccc(Cl)cc1Cl` (stereo not drawn), the TGI was 64.2 µM.

Regarding `CC1=NN(C(=O)c2ccncc2)C(=O)C1N=Nc1ccc(F)cc1` (stereo not drawn), the TGI was above 100 µM.

Consider `COc1ccc(C2Oc3c(c(O)cc4c3[C@H](c3ccc(O)cc3O)[C@H](O)C(c3ccc(O)c(O)c3)O4)C[C@@H]2O)cc1O` (stereo partly drawn), for which the TGI was above 100 µM.

With `CCOC(OC1=C(C#N)CCCC1)C(CC)[Se]c1ccccc1` (stereo not drawn), the TGI was above 100 µM.

Turning to `C=C1C2Oc3ccccc3C1N(c1ccccc1)O2` (stereo not drawn), the TGI was above 100 µM.

The molecule `C=C1C(=O)C23C(O)C1CC[C@H]2C12CCCC(C)(COC(C)=O)[C@H]1[C@H](O)[C@]3(O)OC2` (stereo partly drawn) showed a TGI of 3.44 µM.

The molecule `O=S1CSSC1` had a TGI of 77.4 µM.

`C=CCNC(=O)N(CCC)CCCC(NC(C)=O)C(=O)NCc1ccccc1` (stereo not drawn) returned a TGI above 100 µM.

In the case of `CN(C)C(=S)Nc1nnc(Nc2ccccc2)s1`, the TGI was above 100 µM.

In the case of `CC(=O)[CH-]C(=O)c1ccccc1.CC(=O)[CH-]C(=O)c1ccccc1.CC1(C)OCC(C2OC3OC(C)(C)OC3C2[O-])O1.CC[O-].[Ti+4]` (stereo not drawn), the GI50 was 22.8 µM and the TGI was found to be 40.9 µM.

Molecule `CCOC(=O)C1(Cc2ccc3ccccc3c2)CCCCC(=O)N1` (stereo not drawn) gave a TGI above 100 µM.

As for `Cc1ccccc1/C=C/C(=O)c1ccccc1`, the TGI turned out to be 37.2 µM.

Turning to `COC(=O)C1C(=O)N(CCc2c[nH]c3ccccc23)C[C@@H]2CCC(=O)C[C@H]12` (stereo partly drawn), the TGI is above 100 µM.

Take `C[C@]12C/C(=C/O)C(=O)C(O)=C1CC[C@@H]1C2CC[C@@]2(C)C1CC[C@@H]2O` (stereo partly drawn): the TGI stood at 76.6 µM.

`CC1(C)CC(=O)C(CC2C(=O)c3ccccc3C2=O)C(=O)C1` came in with a TGI above 100 µM.

Turning to `Cc1ccc(C)c(N2C(=O)C(=O)C(c3nc4ccccc4s3)C(=Nc3cccc4c(=O)[nH][nH]c(=O)c34)C2=O)c1` (stereo not drawn), the TGI is above 100 µM.

`N#CC(C#N)=c1c2nsnc2c(=C(C#N)C#N)c2nsnc12` showed a TGI of 3.53 µM.

In turn, `Cc1nc(-c2cccnc2)sc1C(=O)/C=C/c1cccc([N+](=O)[O-])c1` came in with a TGI above 100 µM.

The test system of another experiment is CCRF-CEM leukemia. Put plainly: NCI-60 cell line screen, 48 h.
Take `Cc1c2ccncc2c(C)c2c1[nH]c1ccc(O)c(OCC(F)(F)F)c12`: the TGI worked out at 7.18 µM.

As for `CC(C)(C)OC(=O)NC1CCCC1=O` (stereo not drawn), the TGI is above 100 µM.

With `O=C1[C@H]2ON(c3ccccc3)C(c3ccco3)[C@H]2C(=O)N1c1ccc(Cc2ccc(N3C(=O)[C@@H]4ON(c5ccccc5)C(c5ccco5)[C@@H]4C3=O)cc2)cc1` (stereo partly drawn), the TGI was above 100 µM.

In the case of `Cc1cccc(C)c1N1C(=O)C(=O)C(c2nc3ccccc3s2)/C(=N/NC(=O)NN)C1=O` (stereo not drawn), the TGI was above 100 µM.

For `CCCCCCC(C)CCCCCCCCCCC(=O)O` (stereo not drawn), the TGI is above 100 µM.

On to `CC(C)(C)c1ccc(OC2CCO2)cc1` (stereo not drawn), for which the TGI was determined as 65 µM.

`CC1(O)CCn2c(=O)c3cc4ccccc4cc3c(=O)n2C1O` (stereo not drawn) gave a TGI above 100 µM.

`CC(C)[O-].CC(C)[O-].O=c1cccccc1[O-].O=c1cccccc1[O-].[Ti+4]` yielded a TGI above 100 µM.

In turn, `COc1cc(CNc2nc3ccc(C(F)(F)F)cc3nc2-c2ccccc2)cc(OC)c1OC` returned a TGI above 100 µM.

The molecule `COc1ccccc1NC(=O)/C(=C/c1ccccc1)C(C)=O` had a TGI above 100 µM.

Regarding `CC(=O)n1c(=O)c2cc3c(=O)n(-c4cccc(C#N)c4)c(=O)c3cc2c1=O`, the TGI is above 100 µM.

Regarding `COc1ccc(C2Oc3c(c(O)cc4c3[C@H](c3ccc(O)cc3O)[C@H](O)C(c3ccc(O)c(O)c3)O4)C[C@@H]2O)cc1O` (stereo partly drawn), the TGI was above 100 µM.

On to `CCOC(OC1=C(C#N)CCCC1)C(CC)[Se]c1ccccc1` (stereo not drawn), for which the TGI worked out at 56.4 µM.

With `C=C1C2Oc3ccccc3C1N(c1ccccc1)O2` (stereo not drawn), the TGI turned out to be 89.5 µM.

`C=C1C(=O)C23C(O)C1CC[C@H]2C12CCCC(C)(COC(C)=O)[C@H]1[C@H](O)[C@]3(O)OC2` (stereo partly drawn) came in with a TGI of 1.16 µM.

`O=S1CSSC1` yielded a TGI of 46.2 µM.

In the case of `C=CCNC(=O)N(CCC)CCCC(NC(C)=O)C(=O)NCc1ccccc1` (stereo not drawn), the TGI is above 100 µM.

The molecule `CN(C)C(=S)Nc1nnc(Nc2ccccc2)s1` displayed a TGI above 100 µM.

`CC(=O)[CH-]C(=O)c1ccccc1.CC(=O)[CH-]C(=O)c1ccccc1.CC1(C)OCC(C2OC3OC(C)(C)OC3C2[O-])O1.CC[O-].[Ti+4]` (stereo not drawn): the GI50 is 4.71 µM and the TGI is above 100 µM.

In the case of `CCOC(=O)C1(Cc2ccc3ccccc3c2)CCCCC(=O)N1` (stereo not drawn), the TGI was above 100 µM.

On to `Cc1ccccc1/C=C/C(=O)c1ccccc1`, for which the TGI came to 69.3 µM.

Molecule `COC(=O)C1C(=O)N(CCc2c[nH]c3ccccc23)C[C@@H]2CCC(=O)C[C@H]12` (stereo partly drawn) returned a TGI above 100 µM.

As to `C[C@]12C/C(=C/O)C(=O)C(O)=C1CC[C@@H]1C2CC[C@@]2(C)C1CC[C@@H]2O` (stereo partly drawn), the TGI turned out to be 47.5 µM.

Turning to `CC1(C)CC(=O)C(CC2C(=O)c3ccccc3C2=O)C(=O)C1`, the TGI is above 100 µM.

Molecule `Cc1ccc(C)c(N2C(=O)C(=O)C(c3nc4ccccc4s3)C(=Nc3cccc4c(=O)[nH][nH]c(=O)c34)C2=O)c1` (stereo not drawn) returned a TGI above 100 µM.

Turning to `Cc1nc(-c2cccnc2)sc1C(=O)/C=C/c1cccc([N+](=O)[O-])c1`, the TGI was above 100 µM.

The test system of a further experiment is HT29 colon. Put plainly: NCI-60 cell line screen, 48 h.
Molecule `Cc1c2ccncc2c(C)c2c1[nH]c1ccc(O)c(OCC(F)(F)F)c12` registered a TGI above 7.5 µM.

`CC(C)(C)OC(=O)NC1CCCC1=O` (stereo not drawn) came in with a TGI above 100 µM.

For `Cc1c(C(=O)/C=C/c2ccccc2[N+](=O)[O-])[n+](=O)c2ccccc2n1[O-]`, the TGI worked out at 23.2 µM.

For the molecule `O=C1[C@H]2ON(c3ccccc3)C(c3ccco3)[C@H]2C(=O)N1c1ccc(Cc2ccc(N3C(=O)[C@@H]4ON(c5ccccc5)C(c5ccco5)[C@@H]4C3=O)cc2)cc1` (stereo partly drawn), the TGI was above 100 µM.

Molecule `Cc1cccc(C)c1N1C(=O)C(=O)C(c2nc3ccccc3s2)/C(=N/NC(=O)NN)C1=O` (stereo not drawn) registered a TGI above 100 µM.
